One test addresses T1, p300 (Homo sapiens, UniProt Q09472).
T1 construct: GST (N, cleaved yes); made in house; host or cells: E. coli BL21 pLysS (pGEX-4T1-p300)
As to the kind of experiment: Global fitting of ITC titrations with ternary complex model: binary binding parameters. (ITC needs no label: the signal is the heat of the interaction.)

Test [1] deals with T2, p300 (CH1 domain, residues 330–420) (Homo sapiens, UniProt Q09472).
T2 construct: GST (N, cleaved yes); made in house; host or cells: E. coli BL21 pLysS (pGEX-4T1-p300)
T2 sequence (Q09472 330-420): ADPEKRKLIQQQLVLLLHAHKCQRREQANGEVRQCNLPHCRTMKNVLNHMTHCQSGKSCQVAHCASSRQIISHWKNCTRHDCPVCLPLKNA
Kind of test: ITC of expressed HIF-1α, CITED2 and CITIF peptides binding to p300. As to conditions: ITC, expressed peptides, conditions as Fig. S6 (40 mM sodium phosphate, pH 7.5, 100 mM NaCl, 1 mM DTT, 35°C). Here is the method: We hypothesized that it would be possible to enhance the affinity of HIF-1α for p300 by hybridising key regions of both CITED2 and HIF-1α (see later). We first measured the affinity of the parent peptides. A particular difficulty in comparing these peptide sequences is the different length used in different studies.[28,33,35,36] […]
data and fitted thermogram (lower) (40 mM sodium phosphate, pH 7.5 100 mM NaCl, 1 mM DTT buffer using 5 µM protein in the cell and 60 µM ligand in the syringe at 35°C); (b) Thermodynamic signatures for each interaction. […]
(§1) Isothermal titration calorimetry
(§2) Prior to ITC measurement p300 CH1 was dialysed or run on S75 column in the buffer used for titration, and the same buffer was used to dissolve the pure peptides. Experiments with […]
(§3) MicroCal iTC200 instrument with 10 µM protein in the cell and 100 µM ligand in the syringe at 37°C, using 2 µl injections and 120 or 180 s spacing between injections. Experiments with the […]
(§4) instrument using 3-5 µM protein in the cell and 40-60 µM ligand in the syringe at 35°C, using 5 µl injections and 180 s spacing between injections, for 40 injections. Titrations were performed in 40 mM Na-phosphate, pH 7.5 100 mM NaCl, 1 mM DTT buffer except for GFP-HIF-1α and variants for which 25 mM Tris-HCl, 150 mM NaCl, 1mM DTT, pH 7.4 buffer was used. Data were analysed using NITPIC3 and fitted using SEDPHAT4 to a single binding site model (fixed 1:1 stoichiometry), with baseline and incompetent protein fraction as adjustable parameters. 68 % confidence intervals for the fitted values were determined using the automatic confidence interval search implemented in SEDPHAT. Figures were prepared using […]

For test [2], the target named is T2, p300 (CH1 domain, residues 330–420). As to the kind of experiment: ITC of chemically synthesized HIF-1α, CITED2 and CITIF peptides binding to p300. Conditions: ITC, 35 °C, 40 mM sodium phosphate, pH 7.5, 100 mM NaCl, 1 mM DTT, 5 μM protein in cell, 60 μM ligand in syringe. The method, then: Raw ITC (upper) data and fitted thermogram (lower) (40 mM sodium phosphate, pH 7.5 100 mM NaCl, 1 mM DTT buffer using 5 μM protein in the cell and 60 μM ligand in the syringe at 35 °C) error bars represent the estimated integration errors; (b) Thermodynamic signatures for each interaction.
Figure S8 (a) Sequences of the truncated CITED2 peptides and isothermal titration […]
µM peptide in the syringe. All measurements were carried out 40 mM sodium phosphate, pH 7.5 100 mM NaCl, 1 mM DTT buffer at 35°C. Error bars represent the estimated integration […]
Table S2 Thermodynamic parameters for shortened CITED2 sequences. 68% confidence intervals for the fitting are shown in brackets. Data fitted to a single binding site model, fixed 1:1 stoichiometry with incompetent protein fraction as an adjustable parameter. […]
as §1, §2, §3, §4

For test [3], the target named is T3, CITED2216-259 /p300 complex (Homo sapiens, UniProt Q09472).
T3 construct: GST (N, cleaved yes); made in house; host or cells: p300: E. coli BL21 pLysS (pGEX-4T1-p300); CITED2 peptide: chemical synthesis
T3 sequence (Q09472 330-420, one chain of several): as the sequence (Q09472 330-420) above
Kind of test: Competition ITC: HIF-1α776-826 titrated to preformed CITED2216-259/p300 complex. Conditions: titrated to CITED2216-259/p300 complex. In kind it is binding. The method, then:
(§5) Figure S7Apparent KD fits for the competition ITC experiment using a competition interaction model. p300/ligand complexes were prepared by titrating the appropriate ligand first to p300 in the cell using 3-5 µM protein concentration, the titration stopped when it reached close to […]
(§6) (Table S5) Then it was titrated with the competitor ligand using 30-60 µM concentration in the syringe, 5 or 10 uL injections with 180-240 s spacing. Background titrations were performed without p300 in the cell and subtracted from the measurements. Apparent KD,app and ΔH app values data were fitted to a competition model (Fig. S17) in SEDPHAT. Error bars represent the estimated integration errors.
(1 picture or pasted object on this page, not shown here)
Table S1 Apparent KD values and thermodynamic parameters for competition ITC experiments derived from fitting the data to a competition model depicted in Fig. S17. confidence intervals of the binding parameters are shown in brackets. […]
as §1
Prior to ITC measurement p300 CH1 was dialysed or run on S75 column in the buffer used for titration, and the same buffer was used to dissolve the pure peptides. […]
37°C, using 2 µl injections and 120 or 180 s spacing between injections. Experiments with the […]
as §4
Competition ITC measurements
Competition ITC measurements were performed in Microcal VP ITC. […]

Test [4] addresses T4, HIF-1α786-826/p300 complex (Homo sapiens, UniProt Q09472).
T4 construct: GST (N, cleaved yes); made in house; host or cells: p300: E. coli BL21 pLysS (pGEX-4T1-p300); HIF-1α peptide: chemical synthesis
Kind of test: Competition ITC: CITED2 peptide titrated to preformed p300/HIF-1α786–826 complex. As to conditions: titrated to HIF-1α786-826/p300 complex, fitted with fixed KD = 42.9 nM and ΔH = -25.8 kcal/mol for HIF-1α786-826, read-out: KD,app CITED2. In kind it is binding. Here is the method:
as §5, §6
(1 picture or pasted object on this page, not shown here) […]
instrument using 3-5 µM protein in the cell and 40-60 µM ligand in the syringe at 35°C, using 5 µl injections and 180 s spacing between injections, for 40 injections. […] Data were analysed using NITPIC3 and fitted using SEDPHAT4 to a single binding site model (fixed 1:1 stoichiometry), with baseline and incompetent protein fraction as adjustable parameters. 68 % confidence intervals for the fitted values were determined using the automatic confidence interval search implemented in SEDPHAT. […]

A further test has as its target p300 CH1 (Homo sapiens) (UniProt Q09472). As to the kind of experiment: anisotropy. As to conditions: cited from earlier work.
The target of test [5] is GST-tagged p300 CH1 domain (residues 330–420) (UniProt Q09472). As to the kind of experiment: SEC; size exclusion chromatography of the GST fusion (protein characterization, Fig. S15).
Test [6] has as its target T5, GST-p300 (GST-tagged p300 CH1 domain, residues 330-420) (human, UniProt Q09472 330-420).
T5 construct: human p300, CH1 domain (zinc finger, TAZ type 1), residues 330-420; For the fluorescence anisotropy experiments the GST cleavage step was omitted (D1:p17); source: E. coli (pGEX-6P-2 in Rosetta 2 or pGEX-4T-1 in BL21 pLysS), glutathione beads, eluted with glutathione, SEC
As to the kind of experiment: fluorescence polarisation; fluorescence anisotropy competition; 5 nM FAM-HIF786-826 as tracer, two-fold dilution series of the competitor from 10 µM over 24 points; 25 mM Tris-HCl, 150 mM NaCl, 1 mM DTT, pH 7.4; concentration of p300 not stated. As to conditions: both partners purified.

Test [7] deals with T6, p300 CH1 domain (residues 330–420) (UniProt Q09472 330-420).
T6 construct: p300 CH1 domain, residues 330–420; The cleavage of GST is said for the anisotropy control; also called p300 with the GST tag cleaved; source: recombinantly expressed as a fusion protein with GST, GST tag cleaved
T6 sequence (Q09472 330-420): as above
Kind of test: ITC; peptide in the syringe, p300 in the cell (Fig. 4: 5 μM protein, 60 μM ligand); 40 mM sodium phosphate, pH 7.5, 100 mM NaCl, 1 mM DTT, 35 °C; single-site model, fixed 1:1 stoichiometry. Conditions: both partners purified.

For test [8], the target named is T6, p300 CH1 domain (residues 330–420). As to the kind of experiment: ITC; competition: CITED2 peptides titrated into the preformed p300/HIF-1α 776–826 complex (1.2–1.6 equivalents of HIF-1α); 40 mM sodium phosphate, pH 7.5, 100 mM NaCl, 1 mM DTT, 35 °C; competitive binding model; apparent. Conditions: both partners purified.
Setting [9] is: global fit 1 (CITED224-259 and HIF776-826 titrations).
[10] abbreviates: global fit 2 (CITED216-269 and HIF776-826 titrations).
Where [11] appears, read: global fit 3 (CITED2216-248 and HIF776-826 titrations).
Where [12] appears, read: 68% confidence interval in brackets.

T1 sequence (Q09472 330-420): as above
T4 sequence (Q09472 330-420, one chain of several): as the sequence (Q09472 330-420) above
T5 sequence (Q09472 330-420): as above

On p300 (setting [9]), `CC[C@H](C)[C@H](NC(=O)[C@@H]1CCCN1C(=O)[C@H](C)NC(=O)[C@H](CC(N)=O)NC(=O)[C@@H](NC(=O)[C@H](CCC(=O)O)NC(=O)[C@H](CS)NC(=O)[C@H](CC(=O)O)NC(=O)[C@H](Cc1ccc(O)cc1)NC(=O)[C@H](CO)NC(=O)[C@@H](NC(=O)[C@H](CC(C)C)NC(=O)[C@H](CCC(N)=O)NC(=O)[C@@H]1CCCN1C(=O)[C@H](CC(C)C)NC(=O)CNC(=O)[C@H](CO)NC(=O)[C@H](CCC(=O)O)NC(=O)[C@H](CC(=O)O)NC(=O)[C@H](CCSC)NC(=O)[C@H](CO)NC(=O)[C@H](CCC(N)=O)NC(=O)CNC(=O)[C@H](CC(C)C)NC(=O)[C@H](CC(C)C)NC(=O)[C@H](CCCNC(=N)N)NC(=O)[C@H](CS)NC(=O)[C@H](C)NC(=O)[C@H](CC(C)C)NC(=O)[C@H](CC(=O)O)NC(=O)[C@H](CO)NC(=O)[C@H](CO)NC(=O)CNC(=O)[C@@H]1CCCN1C(=O)CN)[C@@H](C)O)C(C)C)C(=O)N[C@@H](CCC(N)=O)C(=O)NCC(=O)N[C@@H](CO)C(=O)N[C@@H](CCCNC(=N)N)C(=O)N[C@@H](CC(N)=O)C(=O)N[C@@H](CC(C)C)C(=O)N[C@@H](CC(C)C)C(=O)N[C@@H](CCC(N)=O)C(=O)NCC(=O)N[C@@H](CCC(=O)O)C(=O)N[C@@H](CCC(=O)O)C(=O)N[C@@H](CC(C)C)C(=O)N[C@@H](CC(C)C)C(=O)N[C@@H](CCCNC(=N)N)C(=O)N[C@@H](C)C(=O)N[C@@H](CC(C)C)C(=O)N[C@@H](CC(=O)O)C(=O)N[C@@H](CCC(N)=O)C(=O)N[C@H](C(=O)N[C@@H](CC(N)=O)C(=O)O)C(C)C` [HIF-1α776–826] gave a ΔH of -22.7 kcal/mol and a ΔS of -40.3 cal mol-1 K-1. Besides, at p300 (setting [10]), the ΔH is -22.9 kcal/mol and the ΔS was -41.1 cal mol-1 K-1. For the same molecule, on p300 (setting [11]), the ΔH was -27.8 kcal/mol and the ΔS is -57.4 cal mol-1 K-1. Further, the “ΔS, expressed peptides” value in test [1] is given as −39.2 cal mol^−1 K^−1. For the same molecule, the “ΔH, expressed peptides” value in test [1] (setting [12]) is -22.2 kcal/mol. Further, in [2], the “ΔS, synthetic peptides” value was −41 cal mol^−1 K^−1. Besides, the “ΔH, synthetic peptides” value in test [2] (setting [12]) is -22.9 kcal/mol. The Kd in test [3] (fixed KD = 26.3 nM for CITED2, treat with caution, small heat change, read-out: KD,app HIF-1α) was found to be 695 nM. In test [3] (treat with caution), the “ΔHapp, HIF-1α” value is listed as -26.37 kcal/mol and the “ΔSapp, HIF-1α” value is given as -57.4 cal/mol/K.
For the molecule “Ac-DEEVLMSLVIEMGLDRIKELPELWLGQNEFDFMTDF-NH2 [CITED2_224–259]”, the Kd in test [4] turned out to be 8.4 nM.
On to CITED2 216-269 (from UniProt Q99967), for which the Kd in the test with p300 CH1 (Homo sapiens) was 10 nM.
On to “GST-tagged p300 CH1 domain (residues 330–420) (from UniProt Q09472 330-420) (domain or fragment)”, for which the stoichiometry N – broadly, the number of molecules, sites or subunits per partner or assembly – in test [5] was determined as 2.
In the case of HIF-1α 776-826 (from UniProt Q16665), in the test with p300 CH1 (Homo sapiens), the Kd was 10 nM.

B1: HIF-1α786-826 (expressed, His10-GFP cleaved off) (peptide)
peptide: GPGSSMDESGLPQLTSYDCEVNAPIQGSRNLLQGEELLRALDQVN
notes: four residues (Gly-Pro-Gly-Ser) left from the PreScission protease site; source: E. coli Rosetta 2, from inclusion bodies, His-trap, on-column PreScission cleavage, RP-HPLC; not shown: GFP, N-terminal, cleaved
As to B1, the IC50 (usually the midpoint of a concentration-inhibition curve) in test [6] was 59 ± 6 nM.
For the molecule DEEVLMSLVIEMGLDRIKELPELWL (peptide, UniProt Q99967 224-248, looked up) [CITED2 224–248 (truncated CITED2)], the Kd in test [7] is 10400 nM.
In turn, NVIDTDFIDEEVLMSLVIEMGLDRIKELPELWL (peptide, UniProt Q99967 216-248, looked up) [CITED2 216–248 (C-terminally truncated CITED2)] gave a Kd in test [7] of 303 nM. Also, in test [8], the “KD,app (competition against the preformed p300/HIF-1α 776–826 complex)” value is 46.9 nM.

Values taken from article PMC9092470, “Understanding p300-transcription factor interactions using sequence variation and hybridization†” (RSC Chemical Biology, 2022).
